Values of other authors in paper PMC9255981 (The Oncologist, 2022).

Test system: patients
Details: phase I study ref [1],[2]

- grade of blood CPK increase events (all events): 1
- Myalgia, regardless of causality: 10 % of patients
- blood CPK increase: 3.9%
SMILES: C=CC(=O)N1CCN(c2nc(=O)n(-c3c(C)ccnc3C(C)C)c3nc(-c4c(O)cccc4F)c(F)cc23)[C@@H](C)C1 [sotorasib]
- most frequent treatment-related AEs (>10%): diarrhea, AST increased, and ALT increased
